Results as given in patent EP1501797B1, “3-(SUBSTITUTED AMINO)-1H-INDOLE-2-CARBOXYLIC ACID ESTER AND 3-(SUBSTITUTED AMINO)-BENZO[B]THIOPHENE-2-CARBOXYLIC ACID ESTER DERIVATIVES AS INTERLEUKIN-4 GENE EXPRESSION INHIBITORS” (Aventis Pharmaceuticals Inc., priority 2002, dated 2003).
pIC50: −log10 of the molar value.

Experiments:
IL-5 = assay: Human primary Th2 cells, anti-CD3/anti-CD28 activated, IL-5 ELISA; assay type: cell-based; details: human primary Th2 cells, anti-CD3 and anti-CD28 (Table 5)
Method: (§1) Briefly, CD4^+CD45RA^+ T cells, isolated from donor peripheral blood mononuclear cells of healthy donors, are educated in the presence of anti-CD3/CD28 antibodies and various growth factors to obtain either a Thl-like or Th2-like phenotypes as determined by the known cytokine profiles of these two cell types.
(§2) Peripheral blood mononuclear cells (PBMC) are prepared from human blood by Ficoll-Hypacque (Pharmacia). The cells are washed two times in Hanks balanced salt solution (HBSS) and counted.
(§3) Naive T cells (CD4^+/CD45RA ) are prepared by negative selection method using following antibodies and Dynabeads: anti-CD8, anti-HLA-DR, (where HLA means human leucocyte antigen) anti-CD14, anti-CD16, anti-CD19, anti-CD45RO antibodies (all from R&D Systems, 1-2 µg/ml) are added to the cells, and the cells are kept on ice for 30 min. The cells are washed two times in HBSS, and goat anti- mouse Ig-beads, (bead:target ratio, 5:1) are added. The cells and beads are slowly rotated at 4°C for 20 min. (following the protocol supplied from Dynal). The supernatant is removed and fresh goat anti-mouse Ig-beads are added to the supernatant, which is slowly rotated at 4°C for 20 min. The cells are counted and phenotypically characterized by flow cytometric analysis.
(§4) CD4^+/CD45RA^+ cells at a density of 10^6/ml in RPMI, is prepared and added to RPMI medium containing 10% Hyclone serum/ glutamine and 1-2 µg/ml anti-CD28 Ab. The cells are split in two aliquots. For Th1 cells: anti-IL-4 Ab (1-2 µg/ml), IFN-γ (1 µg/ml, or 5000 units/ml) are added to the wells. For Th2 cells: IL-4 (100-200 ng/ml), anti-IFN-γ neutralizing Ab (1-2 µg/ml), anti-IL-12 neutralizing Ab (1-2 µg/ml) are added into the wells. […] The cells are transferred to fresh wells and grown in 200 units/ml IL-2 for 2 weeks by feeding them every other day with IL-2 containing medium and splitting the cultures 1:2 or 1:3 as needed. The degree of polarization is determined by intracellular staining of cells with anti-IFN-γ and anti-IL-4 antibodies from Pharmingen, and using flow cytometry from Becton Dickinson (BD), according to manufacturers description. The cells are stimulated with PHA and alloantigens at day 14 and 28 as described below. Eight days after the second allostimulation the cells can be used for compound screening or frozen for future use. For compound testing, large quantities of Th1 and Th2 cells derived from a given donor (NYTh1 and NYTh2) were expanded and frozen as aliquots in liquid nitrogen. The cells are thawed and cultured as and when needed. The thawed cells are stimulated with alloantigen/PHA combination. The cells are used for compound screening after 8-10 days in culture.
(§5) Re-stimulation by allogeneic cells: Human PBMCs, to be used as alloantigens, are isolated from freshly drawn blood by Ficoll separation. […] Cells are counted and diluted to a final concentration of 2 x 10^6/ml in medium containing 10 µg/ml PHA and 200 units/ml IL-2.
(§6) Ninetysix well Falcon tissue culture plates (Fisher Scientific) are coated with 100 microliters per well of 10 µg/ml anti-CD3 (PharMingen) antibody in phosphate buffered saline (PBS) and stored at 4°C one day before the experiment.
(§7) On the day of assay, anti-CD3 antibody coated plates are washed with PBS once to remove all soluble anti-CD3 antibody. […] All compounds and controls are assayed in triplicates.

IL-13 = assay: Human primary Th2 cells, anti-CD3/anti-CD28 activated, IL-13 ELISA; assay type: cell-based; details: human primary Th2 cells, anti-CD3 and anti-CD28 (Table 5)
Method: as §1, §2, §3, §4, §5, §6, §7

IL-4 = assay: Human primary Th2 cells, anti-CD3/anti-CD28 activated, IL-4 ELISA; assay type: cell-based; details: human primary Th2 cells, anti-CD3 and anti-CD28 (Table 5)
Method: as §1, §2, §3, §4, §5, §6, §7

Human Th2 cells = assay: Human primary Th2 cells, proliferation (viability, MTS assay); assay type: cell-based; details: human primary Th2 cells, anti-CD3 and anti-CD28 (Table 5); read-out: Prolif. IC50
Method: as §1, §2, §3, §4, §5, §6, §7

IFN-γ = assay: Human primary Th2 cells, anti-CD3/anti-CD28 activated, IFN-γ ELISA; assay type: cell-based; details: human primary Th2 cells, anti-CD3 and anti-CD28 (Table 5)
Method: as §1, §2, §3, §4, §5, §6, §7

in vitro = details: mouse, swiss 3t3 fibroblasts
Method: A third assay utilized in the present invention involves an in vitro cytotoxicity assay. This assay is used to further characterize the compounds in order to assess toxic activities of compounds on contact inhibited, non-dividing 3T3 fibroblasts. Other toxicity assays may be used.
Contact inhibited Swiss 3T3 fibroblasts are purchased from ATCC. The cells are maintained in 1640 RPMI supplemented with 10% fetal bovine serum (Gibco).
On day of assay, cells are detached from flasks by trypsinization, washed in medium and counted. 100 microliters of 2.5 x 10^4 cells per well are plated into Falcon brand 96 well tissue culture plates and cells incubated at 37°C in presence of 5% CO2 for 2 days or until confluent.
[…] All compound dilutions are assayed in triplicate. […] Cells are returned to the incubator for 2 days.
After 2 day incubation, the 3T3 cells are assayed for viability using an MTS Assay Kit (Promega). Media is added to blank wells for background calculations. After 2 hours incubation in kit reagent, the optical density at 490 nm for each compound and control is determined by plate reader.
Results are expressed as percent cytotoxicity, i.e., (mean OD of compound wells - background OD)/ (mean OD of controls - background).
Note that starting concentration of CsA was 1 µM. […]

Structure (SMILES)	pIC50 (IL-5)	pIC50 (IL-13)	pIC50 (IL-4)	pIC50 (Human Th2 cells)	pIC50 (IFN-γ)	viability at 48 h, 0.001 µM (in vitro) [%]	viability at 48 h, 0.003 µM (in vitro) [%]	viability at 48 h, 0.01 µM (in vitro) [%]	viability at 48 h, 0.03 µM (in vitro) [%]	viability at 48 h, 0.1 µM (in vitro) [%]	viability at 48 h, 3 µM (in vitro) [%]	viability at 48 h, 10 µM (in vitro) [%]
O=C(Nc1c(C(=O)O)[nH]c2cc(Cl)cc(Cl)c12)c1ccccc1Cc1ccccc1 [Reference Example 87, 3-((2-Benzylbenzoyl)amino)-4,6-dichloro-1H-indole-2-carboxylic acid]	5.70	< 5.00	6.22	< 5.00	< 5.00							
CN(c1c(C(=O)O)[nH]c2cc(Cl)cc(Cl)c12)S(=O)(=O)c1ccccc1 [Reference Example 92, 3-((Phenylsulfonyl)methylamino)-4,6-dichloro-1H-indole-2-carboxylic acid]	< 5.00	< 5.00	6.35	< 5.00	< 5.00							
CCOC(=O)c1[nH]c2ccccc2c1Nc1ccncc1 [Example 11, 3-(4-pyridinylamino)-1H-indole-2-carboxylic acid, ethyl ester]	< 5.00	< 5.00	< 5.00	< 5.00	< 5.00							
CN(C)CCOC(=O)c1[nH]c2cc(Cl)ccc2c1NC(=O)c1ccccc1 [Example 79, 3-((Benzoyl)amino)-6-chloro-1H-indole-2-carboxylic acid 2-dimethylamino-ethyl ester]	< 5.00	< 5.00	5.30	< 5.00	< 5.00							
CCOC(=O)c1c(Nc2ccncc2)c2ccccc2n1C [Reference Example 24A, 1-Methyl-3-(4-pyridinylamino)-1H-indole-2-carboxylic ethyl ester]	< 5.00	< 5.00	5.70	< 5.00	< 5.00							
CN(C(=O)CCc1ccccc1)c1c(C(=O)O)[nH]c2cc(Cl)ccc12 [Reference Example 76, 3-((3-Phenylpropanoyl)methylamino)-1H-6-chloro-indole-2-carboxylic acid]	< 5.00	< 5.00	5.40	< 5.00	< 5.00							
CCN(C(=O)c1ccccc1)c1c(C(=O)O)[nH]c2cc(Cl)cc(Cl)c12 [Reference Example 85, 3-((Benzoyl)ethlamino)-4,6-dichloro-1H-indole-2-carboxylic acid]	< 5.00	< 5.00	6.05	< 5.00	< 5.00							
CN(C(=O)c1ccccc1)c1c(C(=O)O)[nH]c2cc(Cl)cc(Cl)c12 [Reference Example 77, 3-((Benzoyl)methylamino)-4,6-dichloro-1H-indole-2-carboxylic acid]	< 5.00	< 5.00	5.44	< 5.00	< 5.00							
O=C(Nc1c(C(=O)O)[nH]c2cc(Cl)ccc12)c1ccccc1 [Reference Example 78, 3-((Benzoyl)amino)-6-chloro-1H-indole-2-carboxylic acid]	< 5.00	< 5.00	6.52	< 5.00	< 5.00							
CN(C(=O)c1ccccc1)c1c(C(=O)O)[nH]c2cc(Cl)c(Cl)cc12 [Reference Example 84, 3-((Benzoyl)methylamino)-5,6-dichloro-1H-indole-2-carboxylic acid]	< 5.00	< 5.00	6.00	< 5.00	< 5.00							
CN(C(=O)c1ccc(Cl)cc1)c1c(C(=O)O)[nH]c2cc(Cl)cc(Cl)c12 [Reference Example 80, 3-((4-chlorobenzoyl)methylamino)-4,6-dichloro-1H-indole-2-carboxylic acid]	< 5.00	< 5.00	5.22	< 5.00	< 5.00							
CN(C(=O)c1ccccc1)c1c(C(=O)O)[nH]c2cc(F)ccc12 [Reference Example 86, 3-((Benzoyl)methylamino)-6-fluoro-1H-indole-2-carboxylic acid]	< 5.00	< 5.00	6.00	< 5.00	< 5.00							
CCOC(=O)c1[nH]c2cc(Cl)cc(Cl)c2c1NS(=O)(=O)c1ccccc1 [Example 90, 3-((Phenylsulfonyl)amino)-4,6-dichloro-1H-indole-2-carboxylic acid ethyl ester]	< 5.00	< 5.00	6.00	< 5.00	< 5.00							
CCOC(=O)c1[nH]c2cc(Cl)cc(Cl)c2c1N(Cc1ccccc1)C(=O)c1ccccc1 [Example 89, 3-((Benzoyl)benzylamino)-4,6-dichloro-1H-indole-2-carboxylic acid ethyl ester]	5.10	< 5.00	5.60	5.40	< 5.00							
CN(C(=O)c1cccc(F)c1)c1c(C(=O)O)[nH]c2cc(Cl)cc(Cl)c12 [Reference Example 88, 3-((3-Fluorobenzoyl)methylamino)-4,6-dichloro-1H-indole-2-carboxylic acid]	< 5.00	< 5.00	5.60	< 5.00	< 5.00							
C[C@@H]1C[C@H]2[C@@H]3CCC4=CC(=O)C=C[C@]4(C)[C@@]3(F)[C@@H](O)C[C@]2(C)[C@@]1(O)C(=O)CO [Dexamethasone]						100	77.9	71.6	67.8	64.2	60.7	60.5
O=C(O)c1[nH]c2cc(Cl)cc(Cl)c2c1NS(=O)(=O)c1ccccc1 [Reference Example 91, 3-((Phenylsulfonyl)amino)-4,6-dichloro-1H-indole-2-carboxylic acid]	< 5.00	< 5.00	6.00	< 5.00	< 5.00							
CN(Cc1cnc2nc(N)nc(N)c2n1)c1ccc(C(=O)N[C@@H](CCC(=O)O)C(=O)O)cc1 [Methotrexate]						113	105	103	100	98.9	93.8	92.4
O=C(O)c1[nH]c2cc(Cl)cc(Cl)c2c1N(Cc1ccccc1)C(=O)c1ccccc1 [Reference Example 81, 3-((Benzoyl)benzylamino)-4,6-dichloro-1H-indole-2-carboxylic acid]	5.15	< 5.00	5.22	< 5.00	5.02							
